Test results from patent US9415055B2, “Cyclic amines” (H. Lundbeck A/S, priority 2012, dated 2016).

Molecular target: P2X7 receptor (Homo sapiens (Human), UniProt Q99572)
Test: P2X7 FLIPR assay: antagonism of BzATP response in 293 HEK cells stably expressing P2X7 receptor
Assay type: cell-based
Details: FLIPR fluorescence (Fluo-4), agonist BzATP, 293 HEK cells stably transfected with P2X7 receptor
Description: Cells were plated to cell density of approximately 15,000 cells/well in 384-well assay plates (50 μl/well) with 1.5% low serum media (DMEM, 1.5% BCS, 1% L-glut (2 mM), 1% P/S).
Cells were plated to cell density of approximately 15,000 cells/well in 384-well assay plates (50 μl/well) with 1.5% low serum media (DMEM, 1.5% FBS, 1% L-glut (2 mM), 10 mM HEPES, 1% P/S). Cells were plated 24 hours prior to assay. Cells expressing human, rat or mouse P2X7 receptor were assayed in the following manner.
Fluo-4 NW dye mix (Molecular Probes, Inc., Eugene, Oreg., USA) was prepared in buffer (see manufacturer's instructions). Cell plates were removed from the 37° C. incubator, the media discarded and then 30 μL of dye was added to each well. Plates were placed in the 37° C., non-CO2 incubator for 30 minutes and then room temperature for 30 minutes.
Compound mixtures (A) were added to assay plates containing cells and placed at room temperature for 30 minutes, then BzATP (B) was added. Fluorescence was read using the Tetra FLIPR® (Molecular Devices, Inc., Sunnyvale, Calif., USA) and IC50 values were calculated by standard methods to determine antagonist activity.

P2X7 receptor, sequence (Q99572 whole entry): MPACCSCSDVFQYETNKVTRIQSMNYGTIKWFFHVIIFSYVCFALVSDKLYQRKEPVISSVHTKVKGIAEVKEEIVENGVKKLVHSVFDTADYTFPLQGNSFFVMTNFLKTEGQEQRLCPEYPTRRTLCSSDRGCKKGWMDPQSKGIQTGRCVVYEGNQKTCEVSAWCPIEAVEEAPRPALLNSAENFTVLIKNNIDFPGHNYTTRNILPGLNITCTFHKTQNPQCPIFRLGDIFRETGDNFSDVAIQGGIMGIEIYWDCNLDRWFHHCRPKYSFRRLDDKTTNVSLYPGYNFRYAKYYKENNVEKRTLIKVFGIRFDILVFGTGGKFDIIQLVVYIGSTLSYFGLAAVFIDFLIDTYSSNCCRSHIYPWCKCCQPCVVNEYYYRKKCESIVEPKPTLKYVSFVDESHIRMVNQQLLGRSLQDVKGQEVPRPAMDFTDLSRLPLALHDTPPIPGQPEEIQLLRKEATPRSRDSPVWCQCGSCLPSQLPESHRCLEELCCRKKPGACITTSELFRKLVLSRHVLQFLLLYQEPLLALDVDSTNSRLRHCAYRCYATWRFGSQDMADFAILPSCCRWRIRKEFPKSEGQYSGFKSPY

Cc1ncc(C(CNC(=O)c2cccc(Cl)c2Cl)N2CCCC(F)(F)C2)cn1 (single isomer, unassigned; (+)) [(+2,3-dichloro-N-(2-(3,3-difluoropiperidin-1-yl)-2-(2-methylpyrimidin-5-yl)ethyl)benzamide]
IC50: 14 nM

Cc1ccc(C(CNC(=O)c2cccc(Cl)c2Cl)N2CCOCC2)cn1 (single isomer, unassigned; (+)) [(+)2,3-Dichloro-N-[2-(6-methyl-3-pyridyl)-2-morpholino-ethyl]benzamide]
IC50: 44 nM

O=C(NCC(c1cnc(C2CC2)nc1)N1CCC(F)(F)CC1)c1cccc(Cl)c1Cl (single isomer, unassigned; (+)) [(+)2,3-dichloro-N-[2-(2-cyclopropylpyrimidin-5-yl)-2-(4,4-di] [(+)2,3-dichloro-N-(2-(2-cyclopropylpyrimidin-5-yl)-2-(4,4-difluoropiperidin-1-yl)ethyl)benzamide]
IC50: 4.3 nM

Cc1ncc(C(CNC(=O)c2cccc(Cl)c2Cl)N2CCCCC2)cn1 (single isomer, unassigned; (+)) [(+)2,3-dichloro-N-[2-(2-methylpyrimidin-5-yl)-2-(1-piperidyl] [(+2,3-dichloro-N-(2-(2-methylpyrimidin-5-yl)-2-(piperidin-1-yl)ethyl)benzamide]
IC50: 8.9 nM

Cc1ncc(C(CNC(=O)c2cccc(Cl)c2Cl)N2CCOCC2)cn1 (single isomer, unassigned; (+)) [(+)2,3-dichloro-N-[2-(2-methylpyrimidin-5-yl)-2-morpholino-e] [(+)2,3-Dichloro-N-[2-(2-methylpyrimidin-5-yl)-2-morpholino-ethyl]benzamide]
IC50: 69 nM

Cn1cc(C(CNC(=O)c2cc(F)cc(Cl)c2Cl)N2CCC(F)(F)CC2)cn1 (single isomer, unassigned; (+)) [(+)2,3-dichloro-N-[2-(4,4-difluoro-1-piperidyl)-2-(1-methylp] [(+)2,3-dichloro-5-fluoro-N-(2-(4,4-difluoropiperidin-1-yl)-2-(1-methyl-1H-pyrazol-4-yl)ethyl)benzamide]
IC50: 34 nM

Cn1cc(C(CNC(=O)c2cccc(Cl)c2Cl)N2CCC(F)(F)CC2)cn1 (single isomer, unassigned; (+)) [(+)2,3-dichloro-N-[2-(4,4-difluoro-1-piperidyl)-2-(1-methylp] [(+)2,3-dichloro-N-(2-(4,4-difluoropiperidin-1-yl)-2-(1-methyl-1H-pyrazol-4-yl)ethyl)benzamide]
IC50: 12 nM

CCc1ncc(C(CNC(=O)c2cccc(Cl)c2Cl)N2CCC(F)(F)CC2)cn1 (single isomer, unassigned; (+)) [(+)2,3-dichloro-N-[2-(4,4-difluoro-1-piperidyl)-2-(2-ethylpy] [(+2,3-dichloro-N-(2-(4,4-difluoropiperidin-1-yl)-2-(2-ethylpyrimidin-5-yl)ethyl)benzamide]
IC50: 2.6 nM

Cc1ncc(C(CNC(=O)c2cc(F)cc(Cl)c2Cl)N2CCC(F)(F)CC2)cn1 (single isomer, unassigned; (+)) [(+)2,3-dichloro-N-[2-(4,4-difluoro-1-piperidyl)-2-(2-methylp] [(+)2,3-dichloro-5-fluoro-N-(2-(4,4-difluoropiperidin-1-yl)-2-(2-methylpyrimidin-5-yl)ethyl)benzamide]
IC50: 5.1 nM

Cc1ncc(C(CNC(=O)c2cccc(Cl)c2Cl)N2CCC(F)(F)CC2)cn1 (single isomer, unassigned; (+)) [(+)2,3-dichloro-N-[2-(4,4-difluoro-1-piperidyl)-2-(2-methylp] [(+)2,3-dichloro-N-(2-(4,4-difluoropiperidin-1-yl)-2-(2-methylpyrimidin-5-yl)ethyl)benzamide]
IC50: 3.2 nM

O=C(NCC(c1cnc(C(F)(F)F)nc1)N1CCC(F)(F)CC1)c1cc(F)cc(Cl)c1Cl (single isomer, unassigned; (+)) [(+)2,3-dichloro-N-[2-(4,4-difluoro-1-piperidyl)-2-[2-(triflu] [(+)2,3-dichloro-5-fluoro-N-(2-(4,4-difluoropiperidin-1-yl)-2-(2-(trifluoromethyl)pyrimidin-5-yl)ethyl)benzamide]
IC50: 4.9 nM

Cc1ncc(C(CNC(=O)c2cccc(Cl)c2Cl)N2CCC(F)CC2)cn1 (single isomer, unassigned; (+)) [(+)2,3-dichloro-N-[2-(4-fluoro-1-piperidyl)-2-(2-methylpyrim] [(+2,3-dichloro-N-(2-(4-fluoropiperidin-1-yl)-2-(2-methylpyrimidin-5-yl)ethyl)benzamide]
IC50: 6.5 nM

O=C(NCC(c1cnc(C(F)(F)F)nc1)N1CCC(F)CC1)c1cccc(Cl)c1Cl (single isomer, unassigned; (+)) [(+)2,3-dichloro-N-[2-(4-fluoro-1-piperidyl)-2-[2-(trifluorom] [(+)2,3-dichloro-N-(2-(4-fluoropiperidin-1-yl)-2-(2-(trifluoromethyl)pyrimidin-5-yl)ethyl)benzamide]
IC50: 3.5 nM

O=C(NCC(c1cnc(C(F)F)nc1)N1CCOCC1)c1cccc(Cl)c1Cl (single isomer, unassigned; (+)) [(+)2,3-dichloro-N-[2-[2-(difluoromethyl)pyrimidin-5-yl]-2-mo] [(+)2,3-dichloro-N-(2-(2-(difluoromethyl)pyrimidin-5-yl)-2-morpholinoethyl)benzamide]
IC50: 3.9 nM

O=C(NCC(c1ccc(C(F)F)nc1)N1CCC(F)(F)CC1)c1cccc(Cl)c1Cl (single isomer, unassigned; (+)) [(+)2,3-dichloro-N-[2-[6-(difluoromethyl)-3-pyridyl]-2-(4,4-d] [(+)2,3-dichloro-N-(2-(2-(difluoromethyl)pyridin-5-yl)-2-(4,4-difluoropiperidin-1-yl)ethyl)benzamide]
IC50: 2.4 nM

O=C(NCC(c1cnc(C(F)(F)F)nc1)N1CCOCC1)c1cccc(Cl)c1Cl (single isomer, unassigned; (+)) [(+)2,3-dichloro-N-[2-morpholino-2-[2-(trifluoromethyl)pyrimi] [(+)2,3-Dichloro-N-[2-morpholino-2-[2-(trifluoromethyl)pyrimidin-5-yl]ethyl]benzamide]
IC50: 4.8 nM

O=C(NCC(c1ccc(C(F)(F)F)nc1)N1CCOCC1)c1cccc(Cl)c1Cl (single isomer, unassigned; (+)) [(+)2,3-dichloro-N-[2-morpholino-2-[6-(trifluoromethyl)-3-pyr] [(+)2,3-Dichloro-N-[2-morpholino-2-[6-(trifluoromethyl)-3-pyridyl]ethyl]benzamide]
IC50: 5.5 nM

O=C(NCC(c1cnc(C(F)(F)F)nc1)N1CCC(F)(F)CC1)c1c(F)cc(Cl)cc1Cl (single isomer, unassigned; (+)) [(+)2,4-dichloro-N-[2-(4,4-difluoro-1-piperidyl)-2-[2-(triflu] [(+)2,4-dichloro-6-fluoro-N-(2-(4,4-difluoropiperidin-1-yl)-2-(2-(trifluoromethyl)pyrimidin-5-yl)ethyl)benzamide]
IC50: 4.7 nM

O=C(NCC(c1cnc(C(F)(F)F)nc1)N1CCC(F)(F)CC1)c1ccc(Cl)cc1Cl (single isomer, unassigned; (+)) [(+)2,4-dichloro-N-[2-(4,4-difluoro-1-piperidyl)-2-[2-(triflu] [(+)2,4-dichloro-N-(2-(4,4-difluoropiperidin-1-yl)-2-(2-(trifluoromethyl)pyrimidin-5-yl)ethyl)benzamide]
IC50: 5.6 nM

O=C(NCC(c1cnc(C2CC2)nc1)N1CCC(F)(F)CC1)c1c(Cl)cccc1Cl (single isomer, unassigned; (+)) [(+)2,6-dichloro-N-(2-(2-cyclopropylpyrimidin-5-yl)-2-(4,4-difluoropiperidin-1-yl)ethyl)benzamide]
IC50: 5.3 nM

Cn1cc(C(CNC(=O)c2c(Cl)cccc2Cl)N2CCC(F)(F)CC2)cn1 (single isomer, unassigned; (+)) [(+)2,6-dichloro-N-[2-(4,4-difluoro-1-piperidyl)-2-(1-methylp] [(+)2,6-dichloro-N-(2-(4,4-difluoropiperidin-1-yl)-2-(1-methyl-1H-pyrazol-4-yl)ethyl)benzamide]
IC50: 56 nM

CCc1ncc(C(CNC(=O)c2c(Cl)cccc2Cl)N2CCC(F)(F)CC2)cn1 (single isomer, unassigned; (+)) [(+)2,6-dichloro-N-[2-(4,4-difluoro-1-piperidyl)-2-(2-ethylpy] [(+2,6-dichloro-N-(2-(4,4-difluoropiperidin-1-yl)-2-(2-ethylpyrimidin-5-yl)ethyl)benzamide]
IC50: 15 nM

Cc1ncc(C(CNC(=O)c2c(Cl)ccc(F)c2Cl)N2CCC(F)(F)CC2)cn1 (single isomer, unassigned; (+)) [(+)2,6-dichloro-N-[2-(4,4-difluoro-1-piperidyl)-2-(2-methylp] [(+)2,6-dichloro-5-fluoro-N-(2-(4,4-difluoropiperidin-1-yl)-2-(2-methylpyrimidin-5-yl)ethyl)benzamide]
IC50: 25 nM

Cc1ncc(C(CNC(=O)c2c(Cl)cccc2Cl)N2CCC(F)(F)CC2)cn1 (single isomer, unassigned; (+)) [(+)2,6-dichloro-N-[2-(4,4-difluoro-1-piperidyl)-2-(2-methylp] [(+)2,6-dichloro-N-(2-(4,4-difluoropiperidin-1-yl)-2-(2-methylpyrimidin-5-yl)ethyl)benzamide]
IC50: 19 nM
